According to PMC6562672, “Dose-Dependent Sorafenib-Induced Immunosuppression Is Associated with Aberrant NFAT Activation and Expression of PD-1 in T Cells” (Cancers, 2019):

Columns and labels:
NFAT1 = NFAT1 nuclear translocation in T cells by imaging flow cytometry (similarity score); type: cell-based, human; conditions: for nuclear translocation of NFAT1: non-stimulated CD8+ T cells
Protocol: (§1) PBMCs were allowed to ‘recover’ in AIM-V medium (Thermo Fisher Scientific) at 37 °C, 5% CO2 in a humidified atmosphere overnight. 2 × 10^6 cells were treated with 0–10 µM sorafenib for the durations specified in the results section. If the experimental conditions required T cell stimulation, samples were co-treated (stimulated) with 1 µg/mL anti-CD3 and 1 µg/mL anti-CD28 for 2 h. Following treatment, PBMCs were placed on ice to stop drug action and immunophenotyped for CD4, CD8, CD25, and PD-1 (CD279). NFAT1 was detected by indirect labeling. Antibodies were diluted in permeabilization wash buffer (PWB) consisting of 0.1% Triton-X-100 in FCM Buffer (1× phosphate buffered saline (PBS) + 0.5%BSA). The primary Rabbit polyclonal NFAT1 antibody was diluted 1:50 in PWB. Following this, 1:200 dilution of secondary AF647 conjugated F(ab’)2 fragment donkey anti rabbit IgG antibody (Jackson ImmunoResearch Laboratories Inc., West Grove, PA, USA) was added. Just prior to data acquisition on the ImageStream, DAPI was added to all samples (0.5 µg/mL final concentration), to stain the nucleus.
(§2) Imaging flow cytometry acquisition, compensation, and analysis was performed on an imaging flow cytometer (ImagestreamX Mk-II; Amnis, part of MilliporeSigma, Seattle, WA, USA) as described previously. Following compensation for spectral overlap, image analysis was performed with IDEAS® software (Amnis, Seattle, WA, USA). To assess nuclear NFAT1 translocation, the corresponding nuclear image and NFAT1 image of each cell was compared and a Similarity Score (SS) was assigned for individual cells using published methods (Figure S3).

PD-1 = assay: PD-1, CD8 and CD25 expression on T cells by imaging flow cytometry; type: cell-based, human
Protocol: as §1, §2

[1] = Treatment toxicity in WHV-infected woodchucks (general performance, CBC, biochemistry); type: in vivo, woodchuck (Marmota monax)
Protocol: General performance statuses of animals were evaluated such as moving activity, appetite, defecation, urination, and weight changes regularly. In addition, CBC and blood biochemistry were measured two times per month during the course of experiment by ProCyte Hematology and Catalyst Chemistry Analyzers (IDEXX, Hoofddorp, The Netherlands).

HCC = assay: Tumor histology: H&E necrosis and CD3 immunohistochemistry; type: in vivo, woodchuck (Marmota monax)
Protocol: Tumor specimens were diagnosed as HCC based on the established classification of neoplastic liver lesions. After standard processing and embedding in paraffin, 4 μm sections were prepared, deparaffinized, stained with hematoxylin-eosin (H&E), studied with a Zeiss Axio Imager A1 microscope (Carl Zeiss, Oberkochen, Germany) by a pathologist blinded to the treatment arm. Morphometric study of areas of necrosis was compared to the size of the tumor sections by counting view fields at medium objective magnification. IHC staining with mouse anti-rat CD3 (BD Biosciences, San Jose, CA, USA) was performed on […] paraffin sections of posttreatment tumor tissues obtained after tumor reached over 2 cm. Images of at least 7 randomly selected fields (unit area of each field, 0.34 mm^2) were captured by observers blinded to sample identity. Identical exposure times and image settings were used within each experiment. Images were analyzed with ImageJ software (http://rsb.info.nih.gov/ij, Bethesda, MD, USA).

[2] = high dose (10 µM), PD-1+ T cells

CNC(=O)c1cc(Oc2ccc(NC(=O)Nc3ccc(Cl)c(C(F)(F)F)c3)cc2)ccn1 [sorafenib, Sorafenib]
nuclear translocation of NFAT1 (NFAT1; 10 µM, 1 h exposure): no significant increase
nuclear translocation of NFAT1 (NFAT1; 10 µM, 4 h exposure): most significant increase
effect on PMA/ionomycin-induced T cell stimulation (NFAT1) (NFAT1; 10 µM, PMA/ionomycin stimulation, lesser extent than CD3/CD28): inhibitory effect
baseline activity of NFAT1 in T cells (NFAT1; 10 µM, absence of CD3/CD28 stimulation): significantly increased
anti-CD3/CD28-induced NFAT1 activity (NFAT1; 10 µM, presence of CD3/CD28 stimulation): significantly inhibited
NFAT1 activation in PD-1+ cells (NFAT1; [2]): increased
NFAT1 activation (NFAT1; lower doses of sorafenib, absence of exogenous stimulatory factors): not observed
proportion of CD4+CD25bright T cells (PD-1; dose-dependent manner, % of total CD4+ cells): decrease
CD8 expression in PD-1+ cells (PD-1; [2]): decreased
NFAT1 activation and decreased expression of CD8 in PD-1 negative T cells (PD-1; high dose (10 µM), PD-1 negative T cells): not observed
proportion of PD-1-expressing CD8+ and CD4+ T cells (PD-1; high dose (10 µM), without exogenous stimulatory factors): increased
general performance change (moving activity, appetite, defecation, urination, weight changes) ([1]; 2.5 and 5.0 mg/kg/day oral, all treatment groups): not detected
CBC and biochemistry analyses among the three groups ([1]; end of experiment, placebo vs 2.5 vs 5.0 mg/kg/day): no statistical difference
necrotic change of HCC (H&E) (HCC; high dose vs placebo, tumor over 2 cm, p = 0.02): significantly large necrotic change
necrotic change of HCC (H&E) (HCC; high vs low dose, p = 0.07): no statistical difference
CD3+ cell infiltration in tumors (HCC; low dose compared to high dose): More CD3+ cells
CD3+ cell infiltration in tumors (HCC; low dose vs placebo): no statistical difference
